The source of these data is paper PMC6704344, “The Preclinical Pharmacological Study of a Novel Long-Acting Local Anesthetic, a Fixed-Dose Combination of QX-OH/Levobupivacaine, in Rats” (Frontiers in Pharmacology, 2019).

Series [1] deals with frog sciatic nerve fibers. As to the kind of experiment: Compound action potentials (CAPs) from frog sciatic nerve fibers. As to conditions: LL-1, 35 mM QX-OH, 10 mM Levo-Bupi. The text has this: According to previous published researches ([Matsushita et al., 2013]; [Ohtsubo et al., 2015]). Nine of frogs were decapitated and then pithed. Then, the sciatic nerve was dissected from the lumbar plexus to the knee. The two ends of isolated sciatic nerves were carefully tied to the wires by threads and placed in Ringer solution (NaCl, 115.5 mmol/L; KCl, 2.0 mmol/L; CaCl2, 1.8 mmol/L; Na2HPO4, 1.3 mmol/L and NaH2PO4, 0.7 mmol/L; pH = 7.4).
The compound action potentials (CAPs) from frog sciatic nerve fibers was recorded by the biological function experiment system (BL-420F, Chengdu Techman Software, China). All practices were carried out at room temperature. The sciatic nerve was loosely placed in three platinum wires and then CAPs were recorded in air using a preamplifier. In this system, two of the platinum wires were used to record CAPs, and the other one was for stimulation. The parameters of stimulation were set as follows: intensity, 3 V; frequency, 1 Hz; rectangular pulses, 0.1 ms. The procedure should be performed quickly in order to avoid the nerve dry. The time of measurement should be less than 2 min. […] In this study, we compared the amplitude of CAPs after using drugs with baseline to present the degree of inhibition from frog sciatic nerve, and which was analyzed using the following equation: CAPs amplitude (%) = CAPs measurement/CAPs baseline × 100%.

The nature of series [2]: Drug concentration and pharmacokinetics in muscle near the injection site after sciatic nerve block in rats. Format: in vivo, rat. The procedure: (§1) In brief, rats were anesthetized by inhaling 1%–2% isoflurane mixed with oxygen through an inhouse-made mask. Then, the rats were placed at right lateral position and inserted vertically using a 23-gauge injector at the middle of the line from the greater trochanter to ischial tuberosity ([Binshtok et al., 2007]; [Zhang et al., 2017b]). Once the bone has been contacted, 200 μl drug was injected.
(§2) On the basis of previous pharmacodynamic studies, nine sampling points were used for determining drug concentration in muscle and sciatic nerve for QX-OH and LL-1: 0.5, 1, 2, 3, 4, 5, 6, 7, and 8 h; four sampling points for Levo-Bupi: 0.5, 1, 2, and 3 h. Due to the destructive sampling, five male rats were sacrificed at each time point for collecting muscle and sciatic nerve nearby the injection site. Then all samples were weighed and frozen at -80°C.
(§3) According to previous study ([Zhang et al., 2017a]), plasma samples were deproteinized by acetonitrile solution with ropivacaine hydrochloride (internal standard, IS). The mixture was centrifuged for 10 min at 28,621 × g in 4°C after fully vortexed. The supernatant was diluted with ultrapure water (50:50, v/v). Muscle and sciatic nerve samples were homogenized by gentleMACS™ Dissociator (Miltenyi Biotec, Germany) and tissue grinder (model SCIENTZ-48, Ningbo, China), respectively. Tissue homogenate was mixed with IS solution by vortex and then centrifuged for 10 min at 28,621 × g. Then, the supernatant was diluted with ultrapure water at equal volume ratio. LC-MS/MS analysis system consist of Agilent 6460 triple quadrupole mass spectrometer and electrospray ionization source (Agilent Technologies, CA, USA). Chromatographic separation was adopted by Agilent Extend C18 column (100 mm × 3 mm, 3.5 μm) at 35°C with isocratic elution containing 0.05% formic acid and acetonitrile at the volume ratio of 78:22 at a flow rate of 0.3 ml/min. Mass spectrometry conditions were in a positive ionization mode: the sheath gas flow rate, 11.0 L/min; sheath gas heater temperature, 300°C; nebulizer pressure, 45 psi; capillary voltage, 3,500 V. MassHunter software was used to analyze data (B.04.00 Build 4.0.479.0, Agilent Technologies, USA).
(§4) The parameters of pharmacokinetics were analyzed by DAS® (Drug and Statistics, version 3.2.1, China) using noncompartmental model. In this study, the following pharmacokinetic parameters were calculated: the value of maximum concentration (Cmax) and the time to acquire (Tmax); the elimination half-life (t1/2); area under curve (AUC) from zero to the last time point (AUC0–last) and from zero to infinity (AUC0–∞); clearance (CL/F), and volume of distribution (Vd/F).

Details of series [3]: method as in Corvetto et al., 2012. The conditions noted are these: transversus abdominis plane block; ref Corvetto et al., 2012; cited from earlier work.
For another series, the system named is HT22 cells. Kind of series: Cellular drug uptake assay. Format: cell-based, mouse. As to conditions: LL-1 vs 10 mM Levo-Bupi alone, 10 min incubation, n = 10, p = 0.067. The procedure:
HT22 cell line, a sub-line derived from HT4 cells that were originally immortalized from primary mouse hippocampal neuron, were a generous gift from Dr. Huang (West China Second University Hospital, Sichuan University, China). HT22 cells were cultured in DMEM with high glucose (HyClone, Utah, USA) supplemented with 10% fetal bovine serum (Gibco, New York, USA) and 1% penicillin and streptomycin (HyClone, Utah, USA) in a humidified incubator with 5% CO2 and 95% air at 37°C.
According to previous study ([Brenneis et al., 2014]), cells were plated on 35 mm 6-well dishes (2.5 × 10^5 per well). When cells reached confluence at 70%–80%, the medium was removed, and plates washed with PBS (NaCl, 137.0 mmol/L; KCl, 2.7 mmol/L; KH2PO4, 1.5 mmol/L and Na2HPO4·12H2O, 8.0 mmol/L; pH = 7.4). Thirty wells were divided to incubate with LL-1, 35 mM QX-OH and 10 mM Levo-Bupi for 10 min, and then washed four times with PBS. Cells were translated to polypropylene tube. The cell suspensions were centrifuged at 72 × g and the supernatants were removed by pipette. All samples were frozen at -80°C before testing. Samples were homogenized with 100 µL of saline using a tissue grinder. After mixing 50 μl homogenate, 50 μl acetonitrile, and 10 μl IS, then the mixture was centrifuged for 10 min at 28,621 × g, and the supernatant was injected for analysis.

A short description of series [4]: Plasma pharmacokinetics after sciatic nerve block in rats. Format: in vivo, rat. As to conditions: for Tmax / AUC(0-inf) / AUC(0-t) / Cmax / Vd/F / half-life / CL/F: plasma.
Source text: In brief, rats were anesthetized by inhaling 1%–2% isoflurane mixed with oxygen through an inhouse-made mask. Then, the rats were placed at right lateral position and inserted vertically using a 23-gauge injector at the middle of the line from the greater trochanter to ischial tuberosity ([Binshtok et al., 2007]; [Zhang et al., 2017b]).
According to the China Food and Drug Administration guidance for preclinical pharmacokinetic study, there should be more than three sampling points adjacent to the time to reach the maximum concentration. […] Thus, to obtain an accurate value of the maximum concentration of Levo-Bupi, we added another time point at 0.33 h. […] Blood samples were maintained in heparinized polypropylene tube separately and then centrifuged at 877 × g for 10 min to gain plasma within 1 h. All the samples were kept at -80°C.
as §3, §4

Series [5] in a line: Drug concentration and pharmacokinetics in sciatic nerve after sciatic nerve block in rats. Format: in vivo, rat. How it is done:
as §1, §2, §3, §4

The next series has as its system RAW, N1E and CHO cells. The conditions noted are these: cited from earlier work.
On the set-up of series [6]: method as in Yu et al., 2002. As to conditions: subcutaneous administration; ref Yu et al., 2002; cited from earlier work.
The mark [7] stands for this setting: male, rat, muscle near the injection site, muscle, given as LL-1, sciatic nerve block, n = 5 per time point, mean ± SEM.
[8] abbreviates: muscle, given as LL-1, sciatic nerve block, n = 5 per time point, mean ± SEM.
Setting [9] is: both sexes, rat, 200 μl, Levobupivacaine alone (single drug), sciatic nerve block, mean ± SEM.
The mark [10] stands for this setting: both sexes, rat, given as LL-1, sciatic nerve block, n = 10, mean ± SEM.
Where [11] appears, read: male, rat, sciatic nerve, given as LL-1, sciatic nerve block, n = 5 per time point, mean ± SEM.
[12] abbreviates: sciatic nerve, given as LL-1, sciatic nerve block, n = 5 per time point, mean ± SEM.

On to `CCCCN1CCCC[C@H]1C(=O)Nc1c(C)cccc1C` [Levobupivacaine, levobupivacaine], for which the “soak time required to block CAPs” value in series [1] (n = 6, mean ± SEM) was 14.17 ± 2.01 min. For the same compound, in series [1] (within the first 5 min of soaking), the “CAPs amplitude (% of baseline)” value came to 34%. Moreover, the “increase of concentration in muscle, LL-1 vs single drug” value in series [2] (at the same time points) lay within 2 to 15 times. The Tmax worked out at 0.5 h in series [2] (male, rat, muscle near the injection site, muscle, given as LL-1, sciatic nerve block, n = 5 per time point); 0.5 h in series [4] (Sprague-Dawley, 200 μl, Levo-Bupi as a single drug, rat sciatic nerve block, preliminary experiment, read-out: time to maximum concentration); 1.07 ± 0.16 h in series [4] (both sexes, rat, 200 μl, Levobupivacaine alone (single drug), sciatic nerve block, mean ± SEM, read-out: Tmax); 4.11 ± 0.39 h in series [4] (both sexes, rat, given as LL-1, sciatic nerve block, n = 10, mean ± SEM, read-out: Tmax); 4 h in series [4] (rat, Levo-Bupi in combination with QX-314 (35 mM/10 mM), sciatic nerve block, n = 10, read-out: Tmax); 0.5 h in series [5] (male, rat, sciatic nerve, given as LL-1, sciatic nerve block, n = 5 per time point). Moreover, the maximum concentration (Cmax) in series [2] (setting [7]) was 256000 ± 28500 ng/g; in series [4] (setting [9]), 142 ± 13 ng/mL; in series [4] (both sexes, rat, given as LL-1 (35 mM QX-OH/10 mM Levo-Bupi), 200 μl, sciatic nerve block, n = 10, mean ± SEM) it was 114 ± 10.2 ng/mL; in series [5] (setting [11]) it was 430000 ± 48600 ng/g. Moreover, the Vd/F came out at 3.01 ± 1.21 L in series [2] (setting [7]), 4.81 ± 0.5 L in series [4] (setting [9]), 3.81 ± 0.7 L in series [4] (setting [10]) and 1.23 ± 0.8 L in series [5] (setting [11]). Further, the half-life in series [2] (setting [7]) is 1.38 ± 0.6 h; in series [4] (setting [9]), 2.61 ± 0.31 h; in series [4] (setting [10]), 4.89 ± 1.77 h; in series [5] (setting [11]), 1.28 ± 0.74 h. Also, the “AUC0–t” value in series [2] (setting [8]) came out at 417.58 ± 43.46 µg·h/g; in series [5] (setting [12]), 935.82 ± 74.35 µg·h/g. Further, the figures for the “AUC0–∞” value in series [2] (setting [8]) and in series [5] (setting [12]) were 417.86 ± 43.49 µg·h/g and 935.88 ± 74.39 µg·h/g, respectively. Besides, the CL/F in series [2] (setting [8]) amounted to 1.59 ± 0.17 L/h; in series [4] (Levobupivacaine alone (single drug), sciatic nerve block, mean ± SEM) it was 1.32 ± 0.08 L/h; in series [4] (given as LL-1, sciatic nerve block, n = 10, mean ± SEM), 0.78 ± 0.10 L/h; in series [5] (setting [12]), 0.70 ± 0.05 L/h. Besides, the “change of Tmax on combining with epinephrine” value in series [3] is “doubled”. Further, in the series with HT22 cells, the “cellular uptake of Levo-Bupi” value is “had no difference”. The “change of Tmax in plasma in combination with QX-OH vs alone” value in series [4] (LL-1 vs Levo-Bupi alone, sciatic nerve block) is recorded as “increased by four times”. In addition, the AUC(0-inf) was 509 ± 31.5 ng·h/mL in series [4] (setting [9]) and 819 ± 78.8 ng·h/mL in series [4] (setting [10]). Also, the AUC(0-t) was 471 ± 23.3 ng·h/mL in series [4] (setting [9]) and 651 ± 47.4 ng·h/mL in series [4] (setting [10]). In addition, the “increase of concentration in sciatic nerve, LL-1 vs single drug” value in series [5] (at the same time points) is 1.5 to 24 times.
As to `CC[N+](CC)(CC)CC(=O)Nc1c(C)cccc1C.[Br-]` [QX-314], the “cellular uptake of QX-314 in presence of bupivacaine” value in the series on RAW, N1E and CHO cells is reported as “enhanced the cellular uptake”.
In the case of `CCCCN1CCCCC1C(=O)Nc1c(C)cccc1C` (stereo not drawn) [bupivacaine], in series [6], the “time at which Cmax was reached” value is 0.5 h.
